# Data as given in ChEMBL document CHEMBL1765075, “Discovery and structure-activity relationship of 3-aminopyrid-2-ones as potent and selective interleukin-2 inducible T-cell kinase (Itk) inhibitors” (J Med Chem, 2011).
# How the values were obtained:
# [1] = target: Proto-oncogene tyrosine-protein kinase receptor Ret (Homo sapiens, UniProt P07949); test: Inhibition of RET
# [2] = target: Mitogen-activated protein kinase 11 (Homo sapiens, UniProt Q15759); test: Inhibition of P38beta
# [3] = target: T1, Serine/threonine-protein kinase Chk1 (Homo sapiens, UniProt O14757); test: Inhibition of CHK1
# [4] = target: Cyclin-dependent kinase 1 (Homo sapiens, UniProt P06493); test: Inhibition of CDK1
# [5] = target: Serine/threonine-protein kinase PLK3 (Homo sapiens, UniProt Q9H4B4); test: Inhibition of PLK3
# [6] = target: Serine/threonine-protein kinase Nek1 (Homo sapiens, UniProt Q96PY6); test: Inhibition of NEK1
# [7] = target: Calcium/calmodulin-dependent protein kinase type IV (Homo sapiens, UniProt Q16566); test: Inhibition of CAMK4
# [8] = target: Tyrosine-protein kinase Lyn (Homo sapiens, UniProt P07948); test: Inhibition of LYNA
# [9] = target: Protein kinase C beta type (Homo sapiens, UniProt P05771); test: Inhibition of PKCbeta
# [10] = target: Tyrosine-protein kinase CSK (Homo sapiens, UniProt P41240); test: Inhibition of CSK
# [11] = target: Tyrosine-protein kinase JAK2 (Homo sapiens, UniProt O60674); test: Inhibition of JAK2
# [12] = target: Tyrosine-protein kinase HCK (Homo sapiens, UniProt P08631); test: Inhibition of HCK
# [13] = target: Tyrosine-protein kinase JAK3 (Homo sapiens, UniProt P52333); test: Inhibition of JAK3
# [14] = target: Tyrosine-protein kinase Fyn (Homo sapiens, UniProt P06241); test: Inhibition of FYN
# [15] = target: Tyrosine-protein kinase ABL1 (Homo sapiens, UniProt P00519); test: Inhibition of ABL
# [16] = target: Ribosomal protein S6 kinase alpha-5 (Homo sapiens, UniProt O75582); test: Inhibition of MSK1
# [17] = target: Rho-associated protein kinase 2 (Homo sapiens, UniProt O75116); test: Inhibition of ROCK2
# [18] = target: Tyrosine-protein kinase Yes (Homo sapiens, UniProt P07947); test: Inhibition of YES
# [19] = target: Tyrosine-protein kinase BTK (Homo sapiens, UniProt Q06187); test: Inhibition of BTK
# [20] = Octanol-phosphate buffer partition coefficient, log D of the compound at pH 7.4 by HPLC analysis; assay type: physicochemical
# [21] = target: Ribosomal protein S6 kinase alpha-1 (Homo sapiens, UniProt Q15418); test: Inhibition of RSK1
# [22] = target: Dual specificity mitogen-activated protein kinase kinase 1 (Homo sapiens, UniProt Q02750); test: Inhibition of MEK1
# [23] = target: Serine/threonine-protein kinase pim-1 (Homo sapiens, UniProt P11309); test: Inhibition of PIM1
# [24] = target: MAP kinase-activated protein kinase 5 (Homo sapiens, UniProt Q8IW41); test: Inhibition of PRAK
# [25] = target: Cytoplasmic tyrosine-protein kinase BMX (Homo sapiens, UniProt P51813); test: Inhibition of BMX
# [26] = target: Inhibitor of nuclear factor kappa-B kinase subunit alpha (Homo sapiens, UniProt O15111); test: Inhibition of IKKalpha
# [27] = target: Macrophage-stimulating protein receptor (Homo sapiens, UniProt Q04912); test: Inhibition of RON
# [28] = target: Serine/threonine-protein kinase 3 (Homo sapiens, UniProt Q13188); test: Inhibition of MST2
# [29] = Inhibition of CK1
# [30] = target: Mitogen-activated protein kinase kinase kinase 7 (Homo sapiens, UniProt O43318); test: Inhibition of TAK1
# [31] = target: Dual specificity tyrosine-phosphorylation-regulated kinase 1A (Homo sapiens, UniProt Q13627); test: Inhibition of DYRK1A
# [32] = target: Indoleamine 2,3-dioxygenase 1 (Homo sapiens, UniProt P14902); test: Inhibition of IDO1
# [33] = target: Ribosomal protein S6 kinase beta-1 (Homo sapiens, UniProt P23443); test: Inhibition of P70S6K1
# [34] = Solubility of the compound in phosphate buffer at pH 7.4 by high throughput shake flask assay; assay type: physicochemical
# [35] = target: Macrophage colony-stimulating factor 1 receptor (Homo sapiens, UniProt P07333); test: Inhibition of FMS
# [36] = target: Tyrosine-protein kinase Fes/Fps (Homo sapiens, UniProt P07332); test: Inhibition of FES
# [37] = target: Vascular endothelial growth factor receptor 2 (Homo sapiens, UniProt P35968); test: Inhibition of KDR
# [38] = target: Mitogen-activated protein kinase 8 (Homo sapiens, UniProt P45983); test: Inhibition of JNK1
# [39] = Permeability across apical to basolateral side of human Caco2 cells after 120 mins by LC-MS/MS analysis; assay type: ADME, cell-based; settings: Caco-2, read-out: permeability
# [40] = target: Fibroblast growth factor receptor 4 (Homo sapiens, UniProt P22455); test: Inhibition of FGFR4
# [41] = target: Insulin-like growth factor 1 receptor (Homo sapiens, UniProt P08069); test: Inhibition of IGF1R
# [42] = target: RAF proto-oncogene serine/threonine-protein kinase (Homo sapiens, UniProt P04049); test: Inhibition of C-RAF
# [43] = target: T1, Serine/threonine-protein kinase Chk1; test: Inhibition of CHEK1
# [44] = Inhibition of PDK
# [45] = Inhibition of RLK
# [46] = target: Dual specificity mitogen-activated protein kinase kinase 6 (Homo sapiens, UniProt P52564); test: Inhibition of MKK6
# [47] = target: Serine/threonine-protein kinase Sgk1 (Homo sapiens, UniProt O00141); test: Inhibition of SGK1
# [48] = target: Glycogen synthase kinase-3 beta (Homo sapiens, UniProt P49841); test: Inhibition of GSK3-beta
# [49] = target: Serine/threonine-protein kinase N2 (Homo sapiens, UniProt Q16513); test: Inhibition of PRK2
# [50] = target: Mast/stem cell growth factor receptor Kit (Homo sapiens, UniProt P10721); test: Inhibition of c-Kit after 45 mins by radiometric phosphate incorporation assay
# T1 sequence (O14757 whole entry): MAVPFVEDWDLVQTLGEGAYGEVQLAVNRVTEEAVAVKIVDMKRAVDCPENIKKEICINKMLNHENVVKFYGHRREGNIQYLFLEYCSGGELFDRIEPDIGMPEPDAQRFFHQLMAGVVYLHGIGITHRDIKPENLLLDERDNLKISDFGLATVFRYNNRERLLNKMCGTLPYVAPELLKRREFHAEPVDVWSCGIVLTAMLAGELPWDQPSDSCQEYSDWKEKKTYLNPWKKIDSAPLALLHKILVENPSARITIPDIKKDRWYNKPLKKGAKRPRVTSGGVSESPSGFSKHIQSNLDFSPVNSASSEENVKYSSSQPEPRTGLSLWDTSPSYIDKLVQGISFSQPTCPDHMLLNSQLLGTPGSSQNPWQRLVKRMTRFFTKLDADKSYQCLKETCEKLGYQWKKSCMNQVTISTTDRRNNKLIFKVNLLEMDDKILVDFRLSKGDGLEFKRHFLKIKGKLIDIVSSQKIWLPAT
# Chain of Calcium/calmodulin-dependent protein kinase type IV (Q16566 whole entry): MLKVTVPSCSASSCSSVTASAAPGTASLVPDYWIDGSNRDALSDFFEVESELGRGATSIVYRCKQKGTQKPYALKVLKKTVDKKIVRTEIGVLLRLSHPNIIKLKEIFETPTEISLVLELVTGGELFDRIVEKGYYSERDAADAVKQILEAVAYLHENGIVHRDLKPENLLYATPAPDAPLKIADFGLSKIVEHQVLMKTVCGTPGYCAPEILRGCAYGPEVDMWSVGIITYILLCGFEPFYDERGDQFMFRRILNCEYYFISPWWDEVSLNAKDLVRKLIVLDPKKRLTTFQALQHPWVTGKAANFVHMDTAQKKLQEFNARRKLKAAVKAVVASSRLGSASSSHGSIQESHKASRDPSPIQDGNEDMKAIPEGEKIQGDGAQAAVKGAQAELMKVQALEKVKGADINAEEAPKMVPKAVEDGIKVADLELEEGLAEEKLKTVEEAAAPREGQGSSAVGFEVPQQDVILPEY
# Chain of Tyrosine-protein kinase Fes/Fps (P07332 whole entry): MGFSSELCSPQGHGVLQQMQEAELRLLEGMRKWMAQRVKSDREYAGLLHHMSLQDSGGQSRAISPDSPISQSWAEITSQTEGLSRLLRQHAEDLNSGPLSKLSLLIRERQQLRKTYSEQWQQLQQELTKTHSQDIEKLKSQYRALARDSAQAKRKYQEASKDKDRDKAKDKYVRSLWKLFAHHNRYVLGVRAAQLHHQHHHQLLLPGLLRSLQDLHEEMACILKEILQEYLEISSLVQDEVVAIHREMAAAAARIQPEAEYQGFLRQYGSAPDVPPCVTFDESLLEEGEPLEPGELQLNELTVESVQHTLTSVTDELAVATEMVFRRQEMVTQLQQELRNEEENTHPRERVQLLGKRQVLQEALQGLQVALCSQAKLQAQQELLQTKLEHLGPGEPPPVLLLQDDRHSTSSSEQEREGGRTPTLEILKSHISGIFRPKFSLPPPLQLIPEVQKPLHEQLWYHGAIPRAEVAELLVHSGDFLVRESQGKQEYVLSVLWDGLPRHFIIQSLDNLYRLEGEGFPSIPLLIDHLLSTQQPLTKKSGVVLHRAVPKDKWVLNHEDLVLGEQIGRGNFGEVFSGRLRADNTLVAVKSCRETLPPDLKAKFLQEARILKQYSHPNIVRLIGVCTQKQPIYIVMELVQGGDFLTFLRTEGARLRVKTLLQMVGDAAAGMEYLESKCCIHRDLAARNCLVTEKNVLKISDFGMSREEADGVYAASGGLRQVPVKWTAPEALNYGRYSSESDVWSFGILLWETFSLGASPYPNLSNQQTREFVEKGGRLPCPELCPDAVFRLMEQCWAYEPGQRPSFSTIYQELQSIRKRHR
# Chain of Tyrosine-protein kinase BTK (Q06187 whole entry): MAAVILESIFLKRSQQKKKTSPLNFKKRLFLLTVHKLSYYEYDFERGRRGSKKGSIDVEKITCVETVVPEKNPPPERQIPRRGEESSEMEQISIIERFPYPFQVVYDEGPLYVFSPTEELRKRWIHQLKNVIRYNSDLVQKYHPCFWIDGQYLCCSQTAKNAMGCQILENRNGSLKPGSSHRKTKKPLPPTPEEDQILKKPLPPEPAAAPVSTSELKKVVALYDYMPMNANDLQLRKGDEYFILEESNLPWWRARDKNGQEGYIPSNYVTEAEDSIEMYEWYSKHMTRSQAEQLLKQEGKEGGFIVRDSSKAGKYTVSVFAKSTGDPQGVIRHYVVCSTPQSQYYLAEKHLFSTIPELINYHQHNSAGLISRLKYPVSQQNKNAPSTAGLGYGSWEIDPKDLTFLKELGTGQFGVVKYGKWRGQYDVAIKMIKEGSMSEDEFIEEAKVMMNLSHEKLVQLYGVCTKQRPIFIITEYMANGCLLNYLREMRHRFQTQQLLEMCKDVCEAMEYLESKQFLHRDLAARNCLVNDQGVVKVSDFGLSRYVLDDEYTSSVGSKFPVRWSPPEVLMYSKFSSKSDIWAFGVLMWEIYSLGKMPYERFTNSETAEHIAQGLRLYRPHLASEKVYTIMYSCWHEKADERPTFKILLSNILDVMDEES
# Chain of Rho-associated protein kinase 2 (O75116 whole entry): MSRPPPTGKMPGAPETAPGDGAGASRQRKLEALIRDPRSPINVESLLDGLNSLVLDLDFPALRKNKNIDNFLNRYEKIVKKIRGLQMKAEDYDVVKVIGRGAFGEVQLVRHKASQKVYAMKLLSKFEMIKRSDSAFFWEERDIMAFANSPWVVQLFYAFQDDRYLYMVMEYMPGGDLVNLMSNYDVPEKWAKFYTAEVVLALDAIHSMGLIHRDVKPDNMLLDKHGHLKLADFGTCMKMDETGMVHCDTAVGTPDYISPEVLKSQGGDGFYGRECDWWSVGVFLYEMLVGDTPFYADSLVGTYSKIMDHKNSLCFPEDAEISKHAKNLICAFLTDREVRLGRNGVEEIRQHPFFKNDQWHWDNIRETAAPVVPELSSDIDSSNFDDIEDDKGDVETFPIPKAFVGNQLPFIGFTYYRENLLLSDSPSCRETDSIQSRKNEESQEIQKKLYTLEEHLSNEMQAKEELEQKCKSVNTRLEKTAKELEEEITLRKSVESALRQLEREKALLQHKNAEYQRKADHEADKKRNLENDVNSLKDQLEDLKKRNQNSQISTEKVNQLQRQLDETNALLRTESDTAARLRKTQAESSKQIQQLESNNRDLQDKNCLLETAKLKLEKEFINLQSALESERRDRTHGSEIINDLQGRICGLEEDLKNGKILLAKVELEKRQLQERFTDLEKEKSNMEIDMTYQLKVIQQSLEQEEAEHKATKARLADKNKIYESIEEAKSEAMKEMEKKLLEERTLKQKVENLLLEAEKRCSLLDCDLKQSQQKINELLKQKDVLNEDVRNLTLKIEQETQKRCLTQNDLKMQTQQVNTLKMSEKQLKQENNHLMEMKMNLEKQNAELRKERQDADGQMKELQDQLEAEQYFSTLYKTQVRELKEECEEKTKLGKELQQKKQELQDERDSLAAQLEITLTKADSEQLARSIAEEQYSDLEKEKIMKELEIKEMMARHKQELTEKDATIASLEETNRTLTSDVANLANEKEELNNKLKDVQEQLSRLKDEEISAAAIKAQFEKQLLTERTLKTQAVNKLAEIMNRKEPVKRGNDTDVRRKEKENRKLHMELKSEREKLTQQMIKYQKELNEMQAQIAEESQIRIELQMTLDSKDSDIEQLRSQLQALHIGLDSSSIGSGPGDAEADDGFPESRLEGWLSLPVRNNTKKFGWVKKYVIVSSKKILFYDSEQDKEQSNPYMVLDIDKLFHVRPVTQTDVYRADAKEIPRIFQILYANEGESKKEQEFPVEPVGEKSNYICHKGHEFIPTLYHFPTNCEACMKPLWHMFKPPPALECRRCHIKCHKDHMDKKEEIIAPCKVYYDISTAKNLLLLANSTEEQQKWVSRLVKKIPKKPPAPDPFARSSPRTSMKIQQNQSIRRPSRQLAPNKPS
# Chain of Serine/threonine-protein kinase N2 (Q16513 whole entry): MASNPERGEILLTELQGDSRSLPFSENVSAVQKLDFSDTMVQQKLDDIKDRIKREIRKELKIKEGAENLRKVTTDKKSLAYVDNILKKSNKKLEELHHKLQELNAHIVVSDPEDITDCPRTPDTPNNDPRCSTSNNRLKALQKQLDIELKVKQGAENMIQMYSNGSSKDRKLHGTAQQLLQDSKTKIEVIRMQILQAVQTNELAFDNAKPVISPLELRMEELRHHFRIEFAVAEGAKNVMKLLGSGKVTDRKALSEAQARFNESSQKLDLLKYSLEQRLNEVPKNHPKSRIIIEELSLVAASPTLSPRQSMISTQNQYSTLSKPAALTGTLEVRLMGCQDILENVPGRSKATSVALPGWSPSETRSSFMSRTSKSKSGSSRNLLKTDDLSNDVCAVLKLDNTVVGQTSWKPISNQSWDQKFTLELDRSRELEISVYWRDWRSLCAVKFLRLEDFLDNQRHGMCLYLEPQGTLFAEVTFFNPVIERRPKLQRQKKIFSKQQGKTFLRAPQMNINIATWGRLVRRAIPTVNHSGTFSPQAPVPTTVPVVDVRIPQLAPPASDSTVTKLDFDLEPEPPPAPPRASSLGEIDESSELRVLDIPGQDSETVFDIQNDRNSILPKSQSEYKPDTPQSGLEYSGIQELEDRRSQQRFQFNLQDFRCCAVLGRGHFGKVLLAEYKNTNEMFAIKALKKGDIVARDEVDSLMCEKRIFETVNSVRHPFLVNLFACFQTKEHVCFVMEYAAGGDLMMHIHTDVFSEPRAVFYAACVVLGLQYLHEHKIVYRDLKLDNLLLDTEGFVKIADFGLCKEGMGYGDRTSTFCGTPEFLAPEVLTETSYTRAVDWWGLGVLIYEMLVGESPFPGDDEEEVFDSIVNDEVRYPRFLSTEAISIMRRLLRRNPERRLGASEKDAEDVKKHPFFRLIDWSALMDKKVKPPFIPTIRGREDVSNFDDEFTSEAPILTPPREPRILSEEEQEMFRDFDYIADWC
structure (smiles),measurement,setting,value
CNc1cncc(-c2c[nH]c(=O)c(NC(=O)c3ccc(N4CCC[C@H]4CN4CCCC4)cc3)c2)n1,Ki,[1],> 1 µM
same,Ki,[2],> 1 µM
same,Ki,[3],> 1 µM
same,Ki,[4],> 1 µM
same,Ki,[5],> 1 µM
same,Ki,[6],> 1 µM
same,Ki,[7],> 1 µM
same,Ki,[8],> 1 µM
same,Ki,[9],> 1 µM
same,Ki,[10],> 1 µM
same,Ki,[11],0.37 µM
same,Ki,[12],> 1 µM
same,Ki,[13],0.35 µM
same,Ki,[14],> 1 µM
same,Ki,[15],> 1 µM
same,Ki,[16],> 1 µM
same,Ki,[17],> 1 µM
same,Ki,[18],> 1 µM
same,Ki,[19],> 1 µM
same,logD,[20],2.8
same,Ki,[21],> 1 µM
same,Ki,[22],> 1 µM
same,Ki,[23],> 1 µM
same,Ki,[24],> 1 µM
same,Ki,[25],> 1 µM
same,Ki,[26],> 1 µM
same,Ki,[27],> 1 µM
same,Ki,[28],> 1 µM
same,Ki,[29],> 1 µM
same,Ki,[30],0.86 µM
same,Ki,[31],> 1 µM
same,Ki,[32],> 1 µM
same,Ki,[33],> 1 µM
same,solubility thermodynamic,[34],150 µg/mL
same,Ki,[35],> 1 µM
same,Ki,[36],> 1 µM
same,Ki,[37],0.43 µM
same,Ki,[38],> 1 µM
same,Papp A→B at 2 h,[39],10.8 ×10⁻⁶ cm/s
same,Ki,[40],> 1 µM
same,Ki,[41],> 1 µM
same,Ki,[42],> 2 µM
same,Ki,[43],> 1 µM
same,Ki,[44],> 1 µM
same,Ki,[45],> 2 µM
same,Ki,[46],> 1 µM
same,Ki,[47],> 1 µM
same,Ki,[48],> 1 µM
same,Ki,[49],> 1 µM
same,Ki,[50],0.2 µM
